According to the NIST ThermoML archive (doi:10.1021/acs.jced.6b00496):

Test: xn = mol fraction of the nth substance listed
Details: 81.5 kPa, Liquid; for mass density: Vibrating tube method; for speed of sound: Sing-around technique in a fixed-path interferometer

CCn1cc[n+](C)c1.F[B-](F)(F)F [1-ethyl-3-methylimidazolium tetrafluoroborate] + CC(=O)N(C)C
Details | mass density [kg/m3] | speed of sound [m/s]
318.15 K, x1 = 0.131 | 998.322 | –
318.15 K, x1 = 0.198 | 1033.75 | –
318.15 K, x1 = 0.2976 | 1078.11 | –
318.15 K, x1 = 0.3868 | 1113.98 | –
318.15 K, x1 = 0.4734 | 1144.47 | –
318.15 K, x1 = 0.563 | 1171.44 | –
318.15 K, x1 = 0.7089 | 1210.93 | –
318.15 K, x1 = 0.7973 | 1225.46 | –
318.15 K, x1 = 0.8821 | 1238.13 | –
318.15 K, x1 = 1 | 1267.03 | –
323.15 K, x1 = 0.131 | 994.081 | 1413.7
323.15 K, x1 = 0.198 | 1029.41 | 1443.1
323.15 K, x1 = 0.2976 | 1074.03 | 1471.6
323.15 K, x1 = 0.3868 | 1109.98 | 1491.9
323.15 K, x1 = 0.4734 | 1140.55 | 1509
323.15 K, x1 = 0.563 | 1167.54 | 1525.4
323.15 K, x1 = 0.7089 | 1207.14 | 1543.9
323.15 K, x1 = 0.7973 | 1221.69 | 1551.4
323.15 K, x1 = 0.8821 | 1234.36 | 1557
323.15 K, x1 = 1 | 1263.3 | 1570.6
328.15 K, x1 = 0.131 | 990.013 | 1396.4
328.15 K, x1 = 0.198 | 1025.2 | 1426.6
328.15 K, x1 = 0.2976 | 1069.95 | 1456.1
328.15 K, x1 = 0.3868 | 1105.98 | 1477.4
328.15 K, x1 = 0.4734 | 1136.62 | 1495.2
328.15 K, x1 = 0.563 | 1163.66 | 1512.2
328.15 K, x1 = 0.7089 | 1203.38 | 1531.6
328.15 K, x1 = 0.7973 | 1217.94 | 1539.4
328.15 K, x1 = 0.8821 | 1230.61 | 1545.3
328.15 K, x1 = 1 | 1259.58 | 1559.4
333.15 K, x1 = 0.131 | 986.018 | 1379
333.15 K, x1 = 0.198 | 1021.01 | 1410.2
333.15 K, x1 = 0.2976 | 1065.88 | 1440.9
333.15 K, x1 = 0.3868 | 1101.99 | 1462.9
333.15 K, x1 = 0.4734 | 1132.72 | 1481.5
333.15 K, x1 = 0.563 | 1159.8 | 1499.1
333.15 K, x1 = 0.7089 | 1199.69 | 1519.4
333.15 K, x1 = 0.7973 | 1214.19 | 1527.4
333.15 K, x1 = 0.8821 | 1226.87 | 1533.6
333.15 K, x1 = 1 | 1255.88 | 1548.2
338.15 K, x1 = 0.131 | 982.059 | 1361.9
338.15 K, x1 = 0.198 | 1016.81 | 1393.9
338.15 K, x1 = 0.2976 | 1061.83 | 1425.7
338.15 K, x1 = 0.3868 | 1098.01 | 1448.6
338.15 K, x1 = 0.4734 | 1128.83 | 1467.9
338.15 K, x1 = 0.563 | 1155.95 | 1486.1
338.15 K, x1 = 0.7089 | 1195.92 | 1507.3
338.15 K, x1 = 0.7973 | 1210.46 | 1515.6
338.15 K, x1 = 0.8821 | 1223.16 | 1528.1
338.15 K, x1 = 1 | 1252.2 | 1537.2
343.15 K, x1 = 0.131 | 978.076 | 1344.8
343.15 K, x1 = 0.198 | 1012.61 | 1377.7
343.15 K, x1 = 0.2976 | 1057.78 | 1410.6
343.15 K, x1 = 0.3868 | 1094.04 | 1434.4
343.15 K, x1 = 0.4734 | 1124.94 | 1454.4
343.15 K, x1 = 0.563 | 1152.06 | 1473
343.15 K, x1 = 0.7089 | 1192.22 | 1495.4
343.15 K, x1 = 0.7973 | 1206.75 | 1503.8
343.15 K, x1 = 0.8821 | 1219.46 | 1510.6
343.15 K, x1 = 1 | 1248.54 | 1526.2
